{
  "source": "paper PMC3681751",
  "about": "“Identification of a Novel Antimicrobial Peptide from Human Hepatitis B Virus Core Protein Arginine-Rich Domain (ARD)” (PLoS Pathogens, 2013)",
  "key": {"[1]": {"test_system": "K. pneumonia (ATCC 13884)", "format": "cell-based, Klebsiella pneumoniae", "conditions": "triplicate"}, "Vero cells": {"test_system": "Vero cells", "assay": "Cytotoxicity, MTT assay", "format": "cell-based, monkey", "conditions": "1 hour at 37°C; HBc147-183 at 100 µM, melittin at 3.125 µM; triplicates", "experimental": "(§1) Cytotoxicity was measured for HepG2, Huh7, HEK293, and Vero cells by MTT assay. Cells were seeded at 10^4 cells/well in a 96-well plate and serial dilutions of peptides were added into each well. PBS was used as a negative control and melittin was used as a positive control. After 1 hour of incubation, the medium were replaced by fresh medium containing 10% MTT solution (Promega), and the plate was incubated for 4 hours in 5% CO2 at 37°C. The absorbance at the wavelength of 595 nm was measured by an ELISA reader (Bio-Rad model 680)."}, "S. aureus (ATCC 19636)": {"test_system": "S. aureus (ATCC 19636)", "format": "cell-based, Staphylococcus aureus", "conditions": "methicillin-resistant strain, triplicate", "experimental": "(§2) The antimicrobial activities of HBc ARD peptides were tested using a number of bacterial strains from ATCC, including Pseudomonas aeruginosa Migula strain (ATCC 27853, ampicillin-resistant), Pseudomonas aeruginosa Migula strain (ATCC 9027, ampicillin-resistant), Klebsiella pneumoniae strain (ATCC 17593), Escherichia coli strain (ATCC 25922), Staphylococcus aureus subsp. strain (ATCC 25923, methicillin-resistant), Staphylococcus aureus subsp. strain (ATCC 29213, methicillin-resistant), Staphylococcus aureus subsp. strain (ATCC 19636, methicillinresistant), and Candida albicans strain (ATCC 10231).\n(§3) All peptides were purchased from Yao-Hong Biotechnology Inc. (Taipei, Taiwan). Vendors provided data of peptide characterizations, including HPLC and Mass (data not shown). Antimicrobial activity was determined as described with some modifications as detailed below. Bacteria were grown overnight in Mueller–Hinton broth (Difco) at 37°C, and during the mid-logarithmic phase, bacteria were diluted to 10^6 CFU (colony formation unit)/ml in phosphate buffer (10 mM sodium phosphate and 50 mM sodium chloride, pH 7.2). Peptides were serially diluted in the same buffer. Fifty microliter (µl) of bacteria was mixed with fifty µl of peptides at varying concentrations followed by incubation at 37°C for 3 hours without shaking. At the end of incubation, bacteria were placed on Mueller-Hinton broth agar plates, and allowed growth at 37°C overnight for measurement of minimal bactericidal concentration (MBC). […] All peptides were tested in triplicate."}, "S. aureus (ATCC 29213)": {"test_system": "S. aureus (ATCC 29213)", "format": "cell-based, Staphylococcus aureus", "conditions": "methicillin-resistant strain, triplicate", "experimental": "as §2, §3"}, "S. aureus (ATCC 25923)": {"test_system": "S. aureus (ATCC 25923)", "format": "cell-based, Staphylococcus aureus", "conditions": "methicillin-resistant strain, triplicate", "experimental": "as §2, §3"}, "C. albicans (ATCC 10231)": {"test_system": "C. albicans (ATCC 10231)", "format": "cell-based, Candida albicans", "conditions": "fungi, triplicate", "experimental": "as §2, §3"}, "Huh7 cells": {"test_system": "Huh7 cells", "assay": "Cytotoxicity, MTT assay", "format": "cell-based, human", "conditions": "1 hour at 37°C; HBc147-183 at 100 µM, melittin at 3.125 µM; triplicates", "experimental": "as §1"}, "HEK293 cells": {"test_system": "HEK293 cells", "assay": "Cytotoxicity, MTT assay", "format": "cell-based, human", "conditions": "1 hour at 37°C; HBc147-183 at 100 µM, melittin at 3.125 µM; triplicates", "experimental": "as §1"}, "HepG2 cells": {"test_system": "HepG2 cells", "assay": "Cytotoxicity, MTT assay", "format": "cell-based, human", "conditions": "1 hour at 37°C; HBc147-183 at 100 µM, melittin at 3.125 µM; triplicates", "experimental": "as §1"}, "[2]": {"test_system": "P. aeruginosa (ATCC 9027)", "format": "cell-based, Pseudomonas aeruginosa", "conditions": "ampicillin-resistant strain, triplicate", "how_it_was_run": "(§4)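 Mid-log bacteria at 10^6 CFU/ml in 10 mM sodium phosphate, 50 mM NaCl, pH 7.2, exposed to serially diluted HBc ARD peptides for 3 h at 37 °C without shaking. Mixtures plated on Mueller-Hinton agar overnight to give minimal bactericidal concentration; triplicate tests.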"}, "[3]": {"test_system": "P. aeruginosa (ATCC 27853)", "format": "cell-based, Pseudomonas aeruginosa", "conditions": "ampicillin-resistant strain, triplicate", "how_it_was_run": "as §4"}, "E. coli (ATCC 25922)": {"test_system": "E. coli (ATCC 25922)", "format": "cell-based, Escherichia coli", "conditions": "triplicate", "how_it_was_run": "as §4"}, "[4]": {"conditions": "3 h at 37°C in 10 mM sodium phosphate, 50 mM NaCl, pH 7.2, 10^6 CFU/ml, ND = not detectable"}, "[5]": {"conditions": "3 h at 37°C in phosphate buffer pH 7.2"}},
  "note": "Read-outs that look alike come from different tables or passages of the source.",
  "data": [
    {"smiles": "CC[C@H](C)[C@H](NC(=O)CN)C(=O)NCC(=O)N[C@@H](C)C(=O)N[C@H](C(=O)N[C@@H](CC(C)C)C(=O)N[C@@H](CCCCN)C(=O)N[C@H](C(=O)N[C@@H](CC(C)C)C(=O)N[C@H](C(=O)N[C@H](C(=O)NCC(=O)N[C@@H](CC(C)C)C(=O)N1CCC[C@H]1C(=O)N[C@@H](C)C(=O)N[C@@H](CC(C)C)C(=O)N[C@H](C(=O)N[C@@H](CO)C(=O)N[C@@H](Cc1c[nH]c2ccccc12)C(=O)N[C@H](C(=O)N[C@@H](CCCCN)C(=O)N[C@@H](CCCNC(=N)N)C(=O)N[C@@H](CCCCN)C(=O)N[C@@H](CCCNC(=N)N)C(=O)N[C@@H](CCC(N)=O)C(=O)N[C@@H](CCC(N)=O)C(N)=O)[C@@H](C)CC)[C@@H](C)CC)[C@@H](C)O)[C@@H](C)O)C(C)C)C(C)C", "note": "[Melittin, reference compound]", "values": [
      {"measurement": "Antimicrobial activity, MBC", "setting": "[1]; [4]", "value": 2, "unit": "µM"},
      {"measurement": "Antimicrobial activity, MBC", "setting": "[1]; [5]", "value": 5.7, "unit": "µg/mL"},
      {"measurement": "Cell viability / cytotoxicity (MTT)", "setting": "Vero cells", "value": "significantly decreased"},
      {"measurement": "Antimicrobial activity, MBC", "setting": "S. aureus (ATCC 19636); [4]", "value": 1, "unit": "µM"},
      {"measurement": "Antimicrobial activity, MBC", "setting": "S. aureus (ATCC 19636); [5]", "value": 2.85, "unit": "µg/mL"},
      {"measurement": "Antimicrobial activity, MBC", "setting": "S. aureus (ATCC 29213); [4]", "value": 1, "unit": "µM"},
      {"measurement": "Antimicrobial activity, MBC", "setting": "S. aureus (ATCC 29213); [5]", "value": 2.85, "unit": "µg/mL"},
      {"measurement": "Antimicrobial activity, MBC", "setting": "S. aureus (ATCC 25923); [4]", "value": 2, "unit": "µM"},
      {"measurement": "Antimicrobial activity, MBC", "setting": "S. aureus (ATCC 25923); [5]", "value": 5.7, "unit": "µg/mL"},
      {"measurement": "Antimicrobial activity, MBC", "setting": "C. albicans (ATCC 10231); 3 h at 37°C in 10 mM sodium phosphate, 50 mM NaCl, pH 7.2, ND = not detectable", "value": 4, "unit": "µM"},
      {"measurement": "Antimicrobial activity, MBC", "setting": "C. albicans (ATCC 10231); [5]", "value": 11.4, "unit": "µg/mL"},
      {"measurement": "Cell viability / cytotoxicity (MTT)", "setting": "Huh7 cells", "value": "significantly decreased"},
      {"measurement": "Cell viability / cytotoxicity (MTT)", "setting": "HEK293 cells", "value": "significantly decreased"},
      {"measurement": "Cell viability / cytotoxicity (MTT)", "setting": "HepG2 cells", "value": "significantly decreased"},
      {"measurement": "Antimicrobial activity, MBC", "setting": "[2]; [4]", "value": 2, "unit": "µM"},
      {"measurement": "Antimicrobial activity, MBC", "setting": "[2]; [5]", "value": 5.7, "unit": "µg/mL"},
      {"measurement": "Antimicrobial activity, MBC", "setting": "[3]; [4]", "value": 2, "unit": "µM"},
      {"measurement": "Antimicrobial activity, MBC", "setting": "[3]; [5]", "value": 5.7, "unit": "µg/mL"},
      {"measurement": "Antimicrobial activity, MBC", "setting": "E. coli (ATCC 25922); [4]", "value": 2, "unit": "µM"},
      {"measurement": "Antimicrobial activity, MBC", "setting": "E. coli (ATCC 25922); [5]", "value": 5.7, "unit": "µg/mL"}
    ]}
  ]
}
